Data set [1] relates to SK-OV-3 cells. Kind of data set: cells. The conditions noted are these: Homo sapiens, SK-OV-3, 96 h.
Data set [2] in a line: physchem. The conditions noted are these: pH 7.4.
Data set [3] has as its system SK-OV-3 human ovarian carcinoma xenograft. Conditions: female, NCr athymic, mouse, in vivo.
The nature of data set [4]: in vivo. The conditions noted are these: female, mouse, po, 20 mg/kg.
Data set [5] in a line: in vivo. Conditions: female, BALB/c, mouse, 5 mg/kg; for AUC(0-inf): AUCinf; for AUC(0-t): AUClast.
Procedure: Experimental work was done in accordance with Home Office regulations under the
UK National Cancer Research CR I Guidelines with local Ethical Committee approval.9
Female BALB/c and Ncr-Foxn1nu mice were obtained from Charles River (Margate, UK).
Animals were adapted to laborator y conditions for at least 1 week prior to dosing and were
allowed food and water ad libitum. Compounds were administered iv or po (0.1 m L/10 g) in
hydrox yprop yl beta c ycl odextrin in 50 mM sodium citrate buff er (Ncr-Foxn1nu PK). Blood
spotted onto Whatman FTA-DMPK B cards (VWR) together with a calibration curve and
qualit y controls spiked in control blood. Cards were allowed to dr y at room temperature for at
least 2 h. 6 mm discs were punched from the cards and extracted with 200 µ L methanol
containing 500 nM olo moucine as an internal standard. Following centrifugation, extracts
were anal yzed b y multiple reaction monitoring of precursor and product ions by LC-ES I-
% formic acid and methanol on a Phenomenex (Macclesfi eld, UK) Kinet exTM C18, 5 cm x
2.6 µ m, 2.1 mm i.d UHP LC column. Pharmac okinetic parameters were derived from non -
The target of data set [6] is recombinant human pirin (Homo sapiens, UniProt O00625).
Sequence of recombinant human pirin (O00625 whole entry): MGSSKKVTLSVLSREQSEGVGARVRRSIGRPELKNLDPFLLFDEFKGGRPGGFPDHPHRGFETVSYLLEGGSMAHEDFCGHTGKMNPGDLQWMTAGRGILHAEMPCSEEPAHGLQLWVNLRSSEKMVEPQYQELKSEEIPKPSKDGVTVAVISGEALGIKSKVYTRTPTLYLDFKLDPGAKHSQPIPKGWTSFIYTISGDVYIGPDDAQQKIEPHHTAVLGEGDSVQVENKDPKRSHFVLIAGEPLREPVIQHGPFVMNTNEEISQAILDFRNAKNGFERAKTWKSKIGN
Data set [7] concerns SK-OV-3 cells.
Data set [8] deals with WM266.4 cells. Conditions: WM266.4, 30 h.
The mark [9] stands for this setting: read-out: SK-OV-3 pGI50±SEM (converted).

Where “and” joins values, the source holds several entries; their conditions need not be identical. Equal entries are not always repeated. Where two headings read alike, the source gives them in different places. Bounds are passed on as bounds.

On to `Cc1ccc2cc(C(=O)Nc3cc(NC(=O)c4cccc5c4OCCO5)ccc3C)ccc2n1` [Compound 6, N-(5-(2,3-Dihydrobenzo[b][1,4]dioxine-5-carboxamido)-2-methylphenyl)-2-methylquinoline-6-carboxamide], for which the GI50 in data set [1] (read-out: SK-OV-3 GI50) and in data set [1] (setting [9]) was more than 1000 nM in each case.
For the compound `Cc1ccc2cc(C(=O)Nc3c(C)ccc(NC(=O)c4ccc5c(c4)OCCO5)c3C)ccc2n1` [Compound 11, N-(3-(2,3-Dihydrobenzo[b][1,4]dioxine-6-carboxamido)-2,6-dimethylphenyl)-2-methylquinoline-6-carboxamide], the GI50 in data set [1] (read-out: SK-OV-3 GI50) and in data set [1] (setting [9]) was more than 1000 nM throughout.
With `Cc1ccc2cc(C(=O)Nc3cc(NC(=O)c4ccc5c(c4)OCCO5)c(C)cc3C)ccc2n1` [Compound 12, N-(5-(2,3-Dihydrobenzo[b][1,4]dioxine-6-carboxamido)-2,4-dimethylphenyl)-2-methylquinoline-6-carboxamide], the GI50 in data set [1] (read-out: SK-OV-3 GI50) and in data set [1] (setting [9]) was more than 1000 nM each time.
For the compound `Cc1ccc2cc(C(=O)Nc3cc(NS(=O)(=O)c4ccc5c(c4)OCCO5)ccc3C)ccc2n1` [Compound 14, N-(5-(2,3-Dihydrobenzo[b][1,4]dioxine-6-sulfonamido)-2-methylphenyl)-2-methylquinoline-6-carboxamide], the GI50 in data set [1] (read-out: SK-OV-3 GI50) and in data set [1] (setting [9]) was more than 1000 nM each time.
With `Cc1ccc(NC(=O)c2ccc3c(c2)OCCO3)cc1NC(=O)c1ccc2ncccc2c1` [Compound 15, N-(5-(2,3-Dihydrobenzo[b][1,4]dioxine-6-carboxamido)-2-methylphenyl)quinoline-6-carboxamide], the GI50 in data set [1] (read-out: SK-OV-3 GI50) was 8.6 nM; in data set [1] (setting [9]), 2.51 nM.
Regarding `COCCOc1ccc2cc(C(=O)Nc3cc(NC(=O)c4ccc5c(c4)OCCO5)ccc3C)ccc2n1` [Compound 21, N-(5-(2,3-Dihydrobenzo[b][1,4]dioxine-6-carboxamido)-2-methylphenyl)-2-(2-methoxyethoxy)quinoline-6-carboxamide], the GI50 in data set [1] (read-out: SK-OV-3 GI50) is 4.3 nM; in data set [1] (setting [9]), 4.27 nM.
The matching figures for `Cc1ccc(NC(=O)c2ccc3c(c2)OCCO3)cc1NC(=O)c1ccc2nc(OCCCN(C)C)ccc2c1` [Compound 22, N-(5-(2,3-Dihydrobenzo[b][1,4]dioxine-6-carboxamido)-2-methylphenyl)-2-(3-(dimethylamino)propoxy)quinoline-6-carboxamide]: 1.1 nM and 1.15 nM.
For `Cc1ccc(NC(=O)c2ccc3c(c2)OCCO3)cc1NC(=O)c1ccc2nc(OCCCN3CCOCC3)ccc2c1` [Compound 23, N-(5-(2,3-Dihydrobenzo[b][1,4]dioxine-6-carboxamido)-2-methylphenyl)-2-(3-morpholinopropoxy)quinoline-6-carboxamide] the same measures were 7.4 nM and 7.41 nM.
Take `Cc1ccc(NC(=O)c2ccc3c(c2)OCCO3)cc1NC(=O)c1ccc2nc(OCCN3CCCCC3)ccc2c1` [Compound 25, N-(5-(2,3-Dihydrobenzo[b][1,4]dioxine-6-carboxamido)-2-methylphenyl)-2-(2-(piperidin-1-yl)ethoxy)quinoline-6-carboxamide]: the GI50 in data set [1] (read-out: SK-OV-3 GI50) was 1.1 nM.
`Cc1ccc(NC(=O)c2ccc3c(c2)OCCO3)cc1NC(=O)c1ccc2nc(OCCN3CCCC3)ccc2c1` [Compound 26, N-(5-(2,3-Dihydrobenzo[b][1,4]dioxine-6-carboxamido)-2-methylphenyl)-2-(2-(pyrrolidin-1-yl)ethoxy)quinoline-6-carboxamide]: the chromatographic logD – broadly, a lipophilicity value derived from retention on a column – in data set [2] is 2.1. This compound also yielded a total tumor concentrations in data set [3] not above 940 nM. The AUC(0-inf) – broadly, total exposure, with the tail of the curve extrapolated – in data set [4] (Ncr-Foxn1nu (athymic), AUCinf) was 1.58 µM·h; in data set [5] (iv), 14.8 µM·h; in data set [5] (po), 6.09 µM·h. Besides, the AUC(0-t) (commonly exposure summed from dosing to a finite time, without extrapolation to infinity) in data set [4] (Ncr-Foxn1nu (athymic), AUClast) came out at 1.53 µM·h; in data set [5] (iv) it was 14.1 µM·h; in data set [5] (po), 5.02 µM·h. The Cmax (as a rule, the peak of the concentration-time curve) turned out to be 439 nM in data set [4] (Ncr-Foxn1nu (athymic), Cmax); 3830 nM in data set [5] (iv); 828 nM in data set [5] (po). Further, the AUC(0-t) at 24 h was found to be 1.9 µM·h in data set [4] (athymic (Ncr-Foxn1nu), AUC0–24h PO) and 5.8 µM·h in data set [5] (po, AUC0–24h PO). The half-life (commonly the time in which the quantity being followed falls by half) at 24 h in data set [5] is 5.3 h. Besides, in data set [5] (iv, Cl), the clearance (commonly the volume of plasma or blood freed of the substance per unit of time) came to 9.8 mL/min/kg. Moreover, the Vd (commonly the apparent volume that relates the amount in the body to the concentration in plasma or blood) turned out to be 3.26 L/kg in data set [5] (iv, Vss) and 5.78 L/kg in data set [5] (iv, Vz). In addition, in data set [5] (iv, Vss), the distribution volume (Vd) at 24 h was found to be 4.2 L/kg. For the same compound, the clearance at 24 h in data set [5] (iv, blood Cl) is 9.2 mL/min/kg.
On to `CCC(=O)NCCOc1ccc2cc(C(=O)Nc3cc(NC(=O)c4ccc5c(c4)OCCO5)ccc3C)ccc2n1` [Compound 27], for which the GI50 in data set [1] (read-out: SK-OV-3 GI50) was 9.1 nM; in data set [1] (setting [9]) it was 9.12 nM.
Consider `Cc1ccc(NC(=O)c2cccc3c2OCCO3)cc1NC(=O)c1ccc2nc(OCCN3CCCC3)ccc2c1` [Compound 28, N-(5-(2,3-Dihydrobenzo[b][1,4]dioxine-5-carboxamido)-2-methylphenyl)-2-(2-(pyrrolidin-1-yl)ethoxy)quinoline-6-carboxamide], for which the “AS (apparent stoichiometry)” value in data set [6] was 1.18 and 1.11 and 1.80. The “SK-OV-3 pGI50±SEM” value in data set [7] is recorded as less than 6. Moreover, in data set [8], the antimigratory activity result is “no measurable antimigratory activity”. Moreover, the GI50 in data set [1] (read-out: SK-OV-3 GI50) and in data set [1] (setting [9]) was more than 1000 nM throughout.
Consider `Cc1ccc(NC(=O)c2ccc3c(c2)OCCO3)cc1NC(=O)c1ccc2nc(OCCN)ccc2c1` [Compound 29, 2-(2-Aminoethoxy)-N-(5-(2,3-dihydrobenzo[b][1,4]dioxine-6-carboxamido)-2-methylphenyl)quinoline-6-carboxamide], for which the results for the GI50 in data set [1] (read-out: SK-OV-3 GI50) and in data set [1] (setting [9]) were 3.1 nM and 3.09 nM, respectively.

Values taken from paper PMC6014687 (Journal of Medicinal Chemistry, 2016).
